# Laboratory results: ChEMBL document CHEMBL2346515, “Discovery of 4-alkylamino-7-aryl-3-cyanoquinoline LRRK2 kinase inhibitors” (Bioorg Med Chem Lett, 2013)
# Key:
# Brain = experiment: Drug uptake in brain of mouse expressing mouse LRRK2 G2019S mutant at 30 mg/kg, po; format: ADME, organism-based; parameters: dose 30 mg/kg, route oral; details: in vivo
# [1] = Ratio of drug uptake in brain to plasma of mouse expressing mouse LRRK2 G2019S mutant at 100 mg/kg, po; format: ADME, organism-based; parameters: dose 100 mg/kg, route oral; details: read-out: BPR
# [2] = target: RAF proto-oncogene serine/threonine-protein kinase (Homo sapiens) (UniProt P04049); experiment: Inhibition of RAF1 (unknown origin) at 10 uM by single point assay
# Sequence of RAF proto-oncogene serine/threonine-protein kinase (Homo sapiens) (P04049 whole entry): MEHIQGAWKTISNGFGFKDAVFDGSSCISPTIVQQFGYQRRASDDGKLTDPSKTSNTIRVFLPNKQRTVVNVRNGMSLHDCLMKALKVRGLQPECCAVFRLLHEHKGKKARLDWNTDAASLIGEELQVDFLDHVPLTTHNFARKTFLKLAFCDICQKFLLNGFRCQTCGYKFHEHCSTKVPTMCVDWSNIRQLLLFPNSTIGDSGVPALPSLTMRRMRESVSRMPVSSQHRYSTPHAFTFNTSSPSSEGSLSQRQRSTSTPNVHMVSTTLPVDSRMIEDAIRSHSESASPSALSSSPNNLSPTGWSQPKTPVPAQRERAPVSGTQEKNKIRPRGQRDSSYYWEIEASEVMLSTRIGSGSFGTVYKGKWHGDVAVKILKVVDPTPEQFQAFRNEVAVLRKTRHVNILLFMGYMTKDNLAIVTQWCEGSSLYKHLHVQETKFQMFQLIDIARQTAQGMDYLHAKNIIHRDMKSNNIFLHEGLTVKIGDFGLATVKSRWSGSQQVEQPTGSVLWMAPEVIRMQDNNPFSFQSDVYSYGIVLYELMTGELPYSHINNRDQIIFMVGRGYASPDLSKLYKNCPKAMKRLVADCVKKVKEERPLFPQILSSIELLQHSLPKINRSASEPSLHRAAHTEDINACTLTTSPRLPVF
# [3] = target: Platelet-derived growth factor receptor alpha (Homo sapiens) (UniProt P16234); experiment: Inhibition of PDGFRalpha (unknown origin) at 10 uM by single point assay
# [4] = target: Tyrosine-protein kinase Lck (Homo sapiens) (UniProt P06239); experiment: Inhibition of LCK (unknown origin) at 10 uM by single point assay
# Sequence of Tyrosine-protein kinase Lck (Homo sapiens) (P06239 2-509 limits assumed): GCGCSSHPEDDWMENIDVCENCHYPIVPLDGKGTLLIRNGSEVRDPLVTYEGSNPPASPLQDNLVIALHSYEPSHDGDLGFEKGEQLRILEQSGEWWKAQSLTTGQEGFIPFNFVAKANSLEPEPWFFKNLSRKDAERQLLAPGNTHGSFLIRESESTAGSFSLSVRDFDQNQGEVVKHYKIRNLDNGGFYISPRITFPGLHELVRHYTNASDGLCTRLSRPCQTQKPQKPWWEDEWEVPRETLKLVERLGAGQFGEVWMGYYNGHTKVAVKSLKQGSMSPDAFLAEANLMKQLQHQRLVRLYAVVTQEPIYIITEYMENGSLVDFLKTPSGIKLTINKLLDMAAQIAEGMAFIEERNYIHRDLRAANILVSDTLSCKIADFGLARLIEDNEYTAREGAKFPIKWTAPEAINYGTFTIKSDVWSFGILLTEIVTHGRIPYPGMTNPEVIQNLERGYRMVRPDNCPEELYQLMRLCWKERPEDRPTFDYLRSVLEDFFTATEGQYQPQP
# [5] = target: Glycogen synthase kinase-3 beta (Homo sapiens) (UniProt P49841); experiment: Inhibition of GSK3beta (unknown origin) at 10 uM by single point assay
# Sequence of Glycogen synthase kinase-3 beta (Homo sapiens) (P49841 whole entry, looked up): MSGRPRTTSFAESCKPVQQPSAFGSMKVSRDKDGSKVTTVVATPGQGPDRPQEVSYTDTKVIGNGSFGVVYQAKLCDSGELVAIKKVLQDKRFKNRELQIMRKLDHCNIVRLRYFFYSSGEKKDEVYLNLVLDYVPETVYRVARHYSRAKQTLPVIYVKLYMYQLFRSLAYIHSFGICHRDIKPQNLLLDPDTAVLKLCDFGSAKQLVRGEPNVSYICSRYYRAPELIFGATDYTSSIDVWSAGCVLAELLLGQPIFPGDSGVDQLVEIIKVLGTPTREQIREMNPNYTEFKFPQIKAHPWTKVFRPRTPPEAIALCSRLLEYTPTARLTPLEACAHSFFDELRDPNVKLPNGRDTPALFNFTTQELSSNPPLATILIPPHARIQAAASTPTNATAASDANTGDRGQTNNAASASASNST
# [6] = target: Receptor-type tyrosine-protein kinase FLT3 (Homo sapiens) (UniProt P36888); experiment: Inhibition of FLT3 (unknown origin) at 10 uM by single point assay
# Sequence of Receptor-type tyrosine-protein kinase FLT3 (Homo sapiens) (P36888 whole entry): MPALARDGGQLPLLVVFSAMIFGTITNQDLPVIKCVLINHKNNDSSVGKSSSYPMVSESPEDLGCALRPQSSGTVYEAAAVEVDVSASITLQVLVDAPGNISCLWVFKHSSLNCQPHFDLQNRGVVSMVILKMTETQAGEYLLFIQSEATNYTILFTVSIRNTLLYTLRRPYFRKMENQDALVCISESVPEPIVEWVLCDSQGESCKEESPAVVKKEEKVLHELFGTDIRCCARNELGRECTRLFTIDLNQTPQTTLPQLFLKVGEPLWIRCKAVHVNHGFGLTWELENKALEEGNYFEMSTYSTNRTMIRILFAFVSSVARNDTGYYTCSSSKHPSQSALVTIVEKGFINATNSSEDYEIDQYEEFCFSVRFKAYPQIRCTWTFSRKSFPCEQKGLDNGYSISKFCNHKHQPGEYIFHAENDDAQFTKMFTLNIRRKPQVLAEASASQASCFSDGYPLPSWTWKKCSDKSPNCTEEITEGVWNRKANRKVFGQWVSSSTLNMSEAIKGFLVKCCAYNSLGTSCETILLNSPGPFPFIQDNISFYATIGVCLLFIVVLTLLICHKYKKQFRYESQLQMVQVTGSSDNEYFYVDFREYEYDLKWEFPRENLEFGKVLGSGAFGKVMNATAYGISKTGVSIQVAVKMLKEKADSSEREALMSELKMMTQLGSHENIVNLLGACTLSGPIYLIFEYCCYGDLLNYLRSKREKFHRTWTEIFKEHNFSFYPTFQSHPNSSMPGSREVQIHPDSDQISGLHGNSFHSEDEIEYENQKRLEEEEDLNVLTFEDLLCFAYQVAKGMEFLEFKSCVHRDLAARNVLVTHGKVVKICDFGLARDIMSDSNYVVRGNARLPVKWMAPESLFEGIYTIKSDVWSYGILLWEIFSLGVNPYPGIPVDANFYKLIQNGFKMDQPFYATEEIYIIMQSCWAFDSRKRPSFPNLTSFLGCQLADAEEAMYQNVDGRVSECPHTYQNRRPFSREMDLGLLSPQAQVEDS
# [7] = target: Cyclin-dependent kinase 1/cyclin B1 (Homo sapiens) (UniProt P06493+P14635); experiment: Inhibition of CDK1/cyclin B (unknown origin) at 10 uM by single point assay; format: protein-complex assay
# [8] = target: T1, Aurora kinase A (Homo sapiens) (UniProt O14965); experiment: Inhibition of AURKA (unknown origin) at 10 uM by single point assay
# T1 sequence (whole entry): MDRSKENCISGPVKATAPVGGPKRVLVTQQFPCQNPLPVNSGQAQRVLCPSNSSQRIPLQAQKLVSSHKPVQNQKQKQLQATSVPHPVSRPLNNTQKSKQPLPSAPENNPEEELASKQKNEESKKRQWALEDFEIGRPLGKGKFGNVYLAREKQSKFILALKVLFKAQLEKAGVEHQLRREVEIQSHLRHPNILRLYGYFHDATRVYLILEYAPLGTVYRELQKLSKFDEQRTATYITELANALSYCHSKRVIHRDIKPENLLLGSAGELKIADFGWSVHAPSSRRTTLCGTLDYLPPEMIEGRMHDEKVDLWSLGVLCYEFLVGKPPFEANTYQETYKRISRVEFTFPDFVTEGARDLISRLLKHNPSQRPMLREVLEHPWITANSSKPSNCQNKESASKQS
# [9] = target: Leucine-rich repeat serine/threonine-protein kinase 2 (Homo sapiens, UniProt Q5S007); details: 10 uM
# Sequence of Leucine-rich repeat serine/threonine-protein kinase 2 (Q5S007 whole entry): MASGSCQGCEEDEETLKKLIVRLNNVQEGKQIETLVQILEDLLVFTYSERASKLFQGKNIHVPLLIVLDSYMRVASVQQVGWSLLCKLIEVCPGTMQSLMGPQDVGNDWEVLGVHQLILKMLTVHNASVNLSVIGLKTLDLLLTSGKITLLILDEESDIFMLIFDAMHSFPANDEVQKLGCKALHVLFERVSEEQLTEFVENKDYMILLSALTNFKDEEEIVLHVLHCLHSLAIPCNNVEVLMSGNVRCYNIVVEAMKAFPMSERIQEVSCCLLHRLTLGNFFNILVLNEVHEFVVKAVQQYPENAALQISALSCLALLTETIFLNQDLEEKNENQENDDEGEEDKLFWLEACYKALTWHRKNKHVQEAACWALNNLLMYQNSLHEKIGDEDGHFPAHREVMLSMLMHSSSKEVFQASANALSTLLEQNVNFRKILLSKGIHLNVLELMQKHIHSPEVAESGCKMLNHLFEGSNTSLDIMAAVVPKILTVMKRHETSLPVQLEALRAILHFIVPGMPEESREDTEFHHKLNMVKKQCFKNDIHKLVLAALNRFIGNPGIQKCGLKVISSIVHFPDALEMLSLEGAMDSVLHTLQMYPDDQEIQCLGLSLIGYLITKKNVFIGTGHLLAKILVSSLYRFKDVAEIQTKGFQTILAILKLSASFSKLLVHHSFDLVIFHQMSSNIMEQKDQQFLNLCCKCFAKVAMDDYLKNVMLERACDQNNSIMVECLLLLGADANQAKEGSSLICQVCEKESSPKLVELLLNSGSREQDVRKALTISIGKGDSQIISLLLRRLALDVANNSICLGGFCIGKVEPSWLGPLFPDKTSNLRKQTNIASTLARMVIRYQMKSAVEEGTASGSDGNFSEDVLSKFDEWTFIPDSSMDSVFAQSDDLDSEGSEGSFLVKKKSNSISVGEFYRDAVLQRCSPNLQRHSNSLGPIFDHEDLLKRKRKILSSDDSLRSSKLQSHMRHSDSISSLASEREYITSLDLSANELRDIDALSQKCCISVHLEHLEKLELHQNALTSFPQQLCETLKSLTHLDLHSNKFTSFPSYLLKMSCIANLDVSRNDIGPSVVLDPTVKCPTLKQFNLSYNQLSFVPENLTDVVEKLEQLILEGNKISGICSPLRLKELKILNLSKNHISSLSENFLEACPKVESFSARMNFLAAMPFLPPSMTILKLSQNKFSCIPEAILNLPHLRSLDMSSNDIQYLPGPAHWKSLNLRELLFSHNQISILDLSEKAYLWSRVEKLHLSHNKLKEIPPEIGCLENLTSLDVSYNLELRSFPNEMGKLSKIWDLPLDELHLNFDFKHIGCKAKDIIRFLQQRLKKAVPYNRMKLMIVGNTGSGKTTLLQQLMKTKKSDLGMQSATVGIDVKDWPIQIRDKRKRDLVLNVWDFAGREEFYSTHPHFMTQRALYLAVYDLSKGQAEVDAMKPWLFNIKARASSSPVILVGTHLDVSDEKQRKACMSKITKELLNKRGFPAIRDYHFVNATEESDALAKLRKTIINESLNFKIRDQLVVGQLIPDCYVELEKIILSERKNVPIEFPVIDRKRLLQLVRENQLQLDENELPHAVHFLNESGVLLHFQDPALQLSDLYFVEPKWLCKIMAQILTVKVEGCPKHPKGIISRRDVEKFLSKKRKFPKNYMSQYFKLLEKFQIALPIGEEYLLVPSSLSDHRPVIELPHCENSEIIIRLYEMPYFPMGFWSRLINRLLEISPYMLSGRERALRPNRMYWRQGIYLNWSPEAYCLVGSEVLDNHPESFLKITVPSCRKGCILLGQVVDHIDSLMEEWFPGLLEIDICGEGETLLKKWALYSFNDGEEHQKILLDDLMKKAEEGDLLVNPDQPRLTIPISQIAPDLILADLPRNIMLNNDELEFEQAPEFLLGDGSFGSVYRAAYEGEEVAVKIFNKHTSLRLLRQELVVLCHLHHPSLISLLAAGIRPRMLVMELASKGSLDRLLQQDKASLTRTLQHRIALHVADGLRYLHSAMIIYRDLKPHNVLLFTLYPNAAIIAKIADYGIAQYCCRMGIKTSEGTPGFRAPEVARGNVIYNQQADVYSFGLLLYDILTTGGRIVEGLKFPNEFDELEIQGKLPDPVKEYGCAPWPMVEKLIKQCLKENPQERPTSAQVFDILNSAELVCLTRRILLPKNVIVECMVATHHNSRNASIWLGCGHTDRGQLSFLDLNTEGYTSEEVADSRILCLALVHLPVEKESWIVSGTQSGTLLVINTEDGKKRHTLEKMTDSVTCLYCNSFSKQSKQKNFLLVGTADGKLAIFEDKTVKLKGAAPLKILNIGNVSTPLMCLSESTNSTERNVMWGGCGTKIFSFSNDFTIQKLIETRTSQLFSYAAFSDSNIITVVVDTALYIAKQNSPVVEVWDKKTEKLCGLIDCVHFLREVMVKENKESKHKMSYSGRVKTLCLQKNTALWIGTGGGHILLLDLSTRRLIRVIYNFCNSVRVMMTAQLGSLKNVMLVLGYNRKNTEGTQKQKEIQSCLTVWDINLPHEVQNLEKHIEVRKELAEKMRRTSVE
# Description: Inhibition of LRRK2 (unknown origin) at 10 uM by single point assay
Structure (SMILES),Drug uptake (Brain),Kp [1],inhibition [2],inhibition [3],inhibition [4],inhibition [5],inhibition [6],inhibition [7],inhibition [8],inhibition [9]
CC(C)Nc1c(C#N)cnc2cc(-c3cnn(C)c3)ccc12,4 ng/mL,2.1,,,,,,,,
C[C@@H](Nc1c(C#N)cnc2cc(-c3ccc(-n4ccoc4=O)cc3)ccc12)C1CC1,,,6%,5%,18%,1%,44%,12%,67%,81%
